From US6472348B1, “Pyridone derivatives and herbicides” (Kumiai Chemical Industry Co., Ltd., priority 1996, dated 2002)

Columns and labels:
Assay type in all cases: in vivo
barnyardgrass (Ec) [1] = assay: Test Example 1: herbicidal effects by paddy field soil treatment; conditions: 100 g of the active ingredient per 10 ares, 21st day after the application, index 0-5 of Table 47;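 also: grade of growth control; 5 = at least 90%; 4 = 70 to 90%; 3 = 50 to 70%; 2 = 30 to 50%; 1 = 10 to 30%; 0 = under 10%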
How it was run: (§1)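 Scoring of herbicidal effect came 21 days after application of 100 g active ingredient per 10 ares to flooded (3 cm) paddy-soil pots sown with barnyardgrass, monochoria and bulrush, kept in a greenhouse.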

bulrush (Sc) = assay: as above; conditions: 100 g of the active ingredient per 10 ares, 21st day after the application, index 0-5 of Table 47;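 also: grade of growth control; 5 = at least 90%; 4 = 70 to 90%; 3 = 50 to 70%; 2 = 30 to 50%; 1 = 10 to 30%; 0 = under 10%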
How it was run: as §1

monochoria (Mo) = assay: as above; conditions: 100 g of the active ingredient per 10 ares, 21st day after the application, index 0-5 of Table 47;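 also: grade of growth control; 5 = at least 90%; 4 = 70 to 90%; 3 = 50 to 70%; 2 = 30 to 50%; 1 = 10 to 30%; 0 = under 10%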
How it was run: as §1

Digitaria ciliaris (Di) = assay: Test Example 2: herbicidal effects by upland field soil treatment; conditions: 100 g of the active ingredient per 10 ares, 21st day after the application, index 0-5 of Table 47;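 also: grade of growth control; 5 = at least 90%; 4 = 70 to 90%; 3 = 50 to 70%; 2 = 30 to 50%; 1 = 10 to 30%; 0 = under 10%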
Excerpt: (§2) (Test on Herbicidal Effects by Upland Field Soil Treatment)

barnyardgrass (Ec) [2] = assay: as above; conditions: 100 g of the active ingredient per 10 ares, 21st day after the application, index 0-5 of Table 47
Excerpt: as §2

[3] = tested on: common lambsquarters (Ch); assay: as above; conditions: 100 g of the active ingredient per 10 ares, 21st day after the application, index 0-5 of Table 47
Excerpt: as §2

pale smartweed (Po) [4] = assay: as above; conditions: 100 g of the active ingredient per 10 ares, 21st day after the application, index 0-5 of Table 47
Excerpt: as §2

rice flatsedge (Ci) [5] = assay: as above; conditions: 100 g of the active ingredient per 10 ares, 21st day after the application, index 0-5 of Table 47
Excerpt: as §2

slender amaranth (Am) [6] = assay: as above; conditions: 100 g of the active ingredient per 10 ares, 21st day after the application, index 0-5 of Table 47
Excerpt: as §2

Diaitaria ciliaris (Di) = assay: Test Example 3: herbicidal effects by upland field foliage treatment; set-up: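 grade of growth control; 5 = at least 90%; 4 = 70 to 90%; 3 = 50 to 70%; 2 = 30 to 50%; 1 = 10 to 30%; 0 = under 10%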; conditions: 100 g of the active ingredient per 10 ares, evaluated on the 14th day after treatment
How it was run: (§3)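 Readout: visual herbicidal rating per defined standards, 14th day after treatment. Plants sown in sand (pot area 120 cm^2), soil-covered, greenhouse-cultured for 2 weeks prior to foliage application, then greenhouse-grown until scoring.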

barnyardgrass (Ec) [7] = assay: as above; set-up: scale not given here; conditions: 100 g of the active ingredient per 10 ares, evaluated on the 14th day after treatment
How it was run: as §3

[8] = tested on: common lambsquarters (Ch); assay: as above; set-up: scale not given here; conditions: 100 g of the active ingredient per 10 ares, evaluated on the 14th day after treatment
How it was run: as §3

pale smartweed (Po) [9] = assay: as above; set-up: scale not given here; conditions: 100 g of the active ingredient per 10 ares, evaluated on the 14th day after treatment
How it was run: as §3

rice flatsedge (Ci) [10] = assay: as above; set-up: scale not given here; conditions: 100 g of the active ingredient per 10 ares, evaluated on the 14th day after treatment
How it was run: as §3

slender amaranth (Am) [11] = assay: as above; set-up: scale not given here; conditions: 100 g of the active ingredient per 10 ares, evaluated on the 14th day after treatment
How it was run: as §3

cotton (Go) = assay: Test Example 4: crop plant selectivity by upland field soil treatment (cotton), phytotoxicity; set-up: scale not given here; conditions: dose 6.3 g ai/10 a, evaluated 21st day after application
How it was run: (§4)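 Upland soil-treatment selectivity test: scoring on day 21 post-application in a greenhouse, rating crop phytotoxicity on cotton and herbicidal effect on co-sown weeds. Seeds were sown in sand-filled pots and covered with soil before treatment.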

China jute (Ab) [12] = assay: Test Example 4: crop plant selectivity by upland field soil treatment (cotton), herbicidal effects; set-up: scale not given here; conditions: dose 6.3 g ai/10 a, evaluated 21st day after application
How it was run: as §4

[13] = tested on: common lambsquarters (Ch); assay: as above; set-up: scale not given here; conditions: dose 6.3 g ai/10 a, evaluated 21st day after application
How it was run: as §4

green foxtail (Se) [14] = assay: as above; set-up: scale not given here; conditions: dose 6.3 g ai/10 a, evaluated 21st day after application
How it was run: as §4

pale smartweed (Po) [15] = assay: as above; set-up: scale not given here; conditions: dose 6.3 g ai/10 a, evaluated 21st day after application
How it was run: as §4

slender amaranth (Am) [16] = assay: as above; set-up: scale not given here; conditions: dose 6.3 g ai/10 a, evaluated 21st day after application
How it was run: as §4

wheat (Tr) = assay: Test Example 5: crop plant selectivity by upland field soil treatment (wheat), phytotoxicity; set-up: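 grade of crop injury; 5 = at least 90%; 4 = 70 to 90%; 3 = 50 to 70%; 2 = 30 to 50%; 1 = 10 to 30%; 0 = under 10%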; conditions: 21st day after application
How it was run: (§5)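 Pots of sand sown with wheat and weeds (incl. Digitaria ciliaris, green foxtail, slender amaranth), seeds covered with soil, soil-applied treatment. Grown in greenhouse; herbicidal effect and crop phytotoxicity scored visually on day 21 after application against a rating scale.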

China jute (Ab) [17] = assay: Test Example 5: crop plant selectivity by upland field soil treatment (wheat), herbicidal effects; set-up: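 grade of growth control; 5 = at least 90%; 4 = 70 to 90%; 3 = 50 to 70%; 2 = 30 to 50%; 1 = 10 to 30%; 0 = under 10%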; conditions: 21st day after application
How it was run: as §5

[18] = tested on: common lambsquarters (Ch); assay: as above; set-up: scale not given here; conditions: 21st day after application
How it was run: as §5

green foxtail (Se) [19] = assay: as above; set-up: scale not given here; conditions: 21st day after application
How it was run: as §5

pale smartweed (Po) [20] = assay: as above; set-up: scale not given here; conditions: 21st day after application
How it was run: as §5

slender amaranth (Am) [21] = assay: as above; set-up: scale not given here; conditions: 21st day after application
How it was run: as §5

soybean (Gl) = assay: Test Example 6: crop plant selectivity by upland field soil treatment (soybean), phytotoxicity; set-up: scale not given here; conditions: 21st day after application
Experimental: (§6) (Test on Crop Plant Selectivity by Upland Field Soil Treatment)
(§7) In a plastic pot (surface area: 600 cm^2) filled with sand, soybean (Gl), Diaitaria ciliaris (Di), green foxtail (Se), Johnsongrass (So), pale smartweed (Po), slender amaranth (Am), common lambsquarters (Ch) and China jute (Ab) were sown and covered with soil. […] The plants were then cultured in a green house, and the evaluation of the herbicidal effects and phytotoxicity was conducted on the 21st day after the application in accordance with the standards as identified in Table 47. Symbol—represents “not tested”.

China jute (Ab) [22] = assay: Test Example 6: crop plant selectivity by upland field soil treatment (soybean), herbicidal effects; set-up: scale not given here; conditions: 21st day after application
Experimental: as §6, §7

[23] = tested on: common lambsquarters (Ch); assay: as above; set-up: scale not given here; conditions: 21st day after application
Experimental: as §6, §7

green foxtail (Se) [24] = assay: as above; set-up: scale not given here; conditions: 21st day after application
Experimental: as §6, §7

pale smartweed (Po) [25] = assay: as above; set-up: scale not given here; conditions: 21st day after application
Experimental: as §6, §7

slender amaranth (Am) [26] = assay: as above; set-up: scale not given here; conditions: 21st day after application
Experimental: as §6, §7

corn (Ze) = assay: Test Example 7: crop plant selectivity by upland field soil treatment (corn), phytotoxicity; set-up: scale not given here; conditions: dose 1.6 g ai/10a, 21st day after application
Experimental: as §6
(§8) In a plastic pot (surface area: 600 cm^2) filled with sand, corn (Ze), green foxtail (Se), pale smartweed (Po), slender amaranth (Am), common lambsquarters (Ch) and China jute (Ab) were sown and covered with soil. […] The plants were then cultured in a green house, and the evaluation of the herbicidal effects and phytotoxicity was conducted on the 21st day after the application in accordance with the standards as identified in Table 47.

China jute (Ab) [27] = assay: Test Example 7: crop plant selectivity by upland field soil treatment (corn), herbicidal effects; set-up: scale not given here; conditions: dose 1.6 g ai/10a, 21st day after application
Experimental: as §6, §8

[28] = tested on: common lambsquarters (Ch); assay: as above; set-up: scale not given here; conditions: dose 1.6 g ai/10a, 21st day after application
Experimental: as §6, §8

green foxtail (Se) [29] = assay: as above; set-up: scale not given here; conditions: dose 1.6 g ai/10a, 21st day after application
Experimental: as §6, §8

pale smartweed (Po) [30] = assay: as above; set-up: scale not given here; conditions: dose 1.6 g ai/10a, 21st day after application
Experimental: as §6, §8

slender amaranth (Am) [31] = assay: as above; set-up: scale not given here; conditions: dose 1.6 g ai/10a, 21st day after application
Experimental: as §6, §8

Cn1c(C(F)(F)F)ccc(-c2cc(Cl)c(Cl)cc2F)c1=O [1-136]
Herbicidal effects Ec (barnyardgrass (Ec) [1]): 5
Herbicidal effects Sc (bulrush (Sc)): 5
Herbicidal effects Mo (monochoria (Mo)): 5
Herbicidal effects Di (Digitaria ciliaris (Di)): 5
Herbicidal effects Ec (barnyardgrass (Ec) [2]): 5
Herbicidal effects Ch [3]: 5
Herbicidal effects Po (pale smartweed (Po) [4]): 5
Herbicidal effects Ci (rice flatsedge (Ci) [5]): 5
Herbicidal effects Am (slender amaranth (Am) [6]): 5
Herbicidal effects Di (Diaitaria ciliaris (Di)): 5
Herbicidal effects Ec (barnyardgrass (Ec) [7]): 5
Herbicidal effects Ch [8]: 5
Herbicidal effects Po (pale smartweed (Po) [9]): 5
Herbicidal effects Ci (rice flatsedge (Ci) [10]): 5
Herbicidal effects Am (slender amaranth (Am) [11]): 5
Phytotoxicity Go (cotton (Go)): 1
Herbicidal effects Ab (China jute (Ab) [12]): 5
Herbicidal effects Ch [13]: 5
Herbicidal effects Se (green foxtail (Se) [14]): 5
Herbicidal effects Po (pale smartweed (Po) [15]): 5
Herbicidal effects Am (slender amaranth (Am) [16]): 5
Phytotoxicity Tr (wheat (Tr); dose 1.6 g ai/10a): 1
Phytotoxicity Tr (wheat (Tr); dose 6.3 g ai/10a): 2
Herbicidal effects Ab (China jute (Ab) [17]; dose 1.6 g ai/10a): 4
Herbicidal effects Ab (China jute (Ab) [17]; dose 6.3 g ai/10a): 5
Herbicidal effects Ch ([18]; dose 1.6 g ai/10a): 5
Herbicidal effects Ch ([18]; dose 6.3 g ai/10a): 5
Herbicidal effects Se (green foxtail (Se) [19]; dose 1.6 g ai/10a): 5
Herbicidal effects Se (green foxtail (Se) [19]; dose 6.3 g ai/10a): 5
Herbicidal effects Po (pale smartweed (Po) [20]; dose 1.6 g ai/10a): 5
Herbicidal effects Po (pale smartweed (Po) [20]; dose 6.3 g ai/10a): 5
Herbicidal effects Am (slender amaranth (Am) [21]; dose 1.6 g ai/10a): 5
Herbicidal effects Am (slender amaranth (Am) [21]; dose 6.3 g ai/10a): 5
Phytotoxicity Gl (soybean (Gl); dose 1.6 g ai/10a): 0
Phytotoxicity Gl (soybean (Gl); dose 6.3 g ai/10a): 1
Herbicidal effects Ab (China jute (Ab) [22]; dose 1.6 g ai/10a): 4
Herbicidal effects Ab (China jute (Ab) [22]; dose 6.3 g ai/10a): 5
Herbicidal effects Ch ([23]; dose 1.6 g ai/10a): 5
Herbicidal effects Ch ([23]; dose 6.3 g ai/10a): 5
Herbicidal effects Se (green foxtail (Se) [24]; dose 1.6 g ai/10a): 5
Herbicidal effects Se (green foxtail (Se) [24]; dose 6.3 g ai/10a): 5
Herbicidal effects Po (pale smartweed (Po) [25]; dose 1.6 g ai/10a): 5
Herbicidal effects Po (pale smartweed (Po) [25]; dose 6.3 g ai/10a): 5
Herbicidal effects Am (slender amaranth (Am) [26]; dose 1.6 g ai/10a): 5
Herbicidal effects Am (slender amaranth (Am) [26]; dose 6.3 g ai/10a): 5
Phytotoxicity Ze (corn (Ze)): 1
Herbicidal effects Ab (China jute (Ab) [27]): 5
Herbicidal effects Ch [28]: 5
Herbicidal effects Se (green foxtail (Se) [29]): 5
Herbicidal effects Po (pale smartweed (Po) [30]): 5
Herbicidal effects Am (slender amaranth (Am) [31]): 5
